Data set [1] has as its system HK cells, transporter 28. In words: HCHT imaging: inhibition of cytosolic delivery of CTO transporter 28. The data set is classed as cell-based, Human. To be noted: inhibitor 1 h; for IC15: read-out: MIC (concentration needed to reach 15% inhibition), transporter 28 5 μM. As for the experimental part: (§1) Uptake inhibition was measured by the automated HCHT imaging used already to elaborate on cytosolic delivery. For inhibitor screening, HK cells in multiwell plates were incubated with increasing concentrations of inhibitors, followed by fluorescent transporters 28, 31, and 32 at a constant concentration. […] If inhibitors are removed before the addition of transporters 28, 31, and 32, the method is referred to as “pre-incubation”. This is of interest to minimize exchange between the transporter and the inhibitor but is often problematic because dynamic covalent exchange between the inhibitor and cellular target can also be reversed and thus lost. The complementary “co-incubation” operates without inhibitor removal before the addition of transporters 28, 31, and 32.
(§2) 536/40 nm emission filter, and red with 531/40 nm excitation filter and 593/40 nm emission […]
(§3) 4.3. HCHT Inhibitor Screening
(§4) Pre-Incubation Method. As in ref. S1. HeLa Kyoto cells were seeded at 8 ×10^4 cells/mL in FluoroBrite DMEM + 10% FBS on μ-Plate 96-well Black ibiTreat sterile and incubated at 37 °C with 5% CO 2 for 24 h. Then, the medium was removed and cells were washed with PBS ([…]), fresh FluoroBrite DMEM medium (4 × 150 μL/well) was added into the cells using a plate washer (Biotek EL406®), keeping a final volume of 135 μL/well. Different concentrations of the inhibitors were prepared by serial dilution with 10% final concentration DMSO (10× in PBS). The solution of compounds 4 and 33 was prepared final DMSO concentration of 10% in each dilution (10× in PBS). These inhibitor solutions (10× final concentration), transporter 28 (10× in DMEM), transporters 31 and 32 (10× in PBS) a solution of HOE (100 μg/mL) and PI (10 μg/mL) in PBS were prepared freshly in a 96-well V-bottom plate before adding to the cells. The inhibitor solutions from the V-bottom plate were added to the cells (15 μL/well) in a final volume of 150 μL/well using an electronic multichannel pipette and cells were incubated for 1 h at 37 °C with 5% CO 2. After this incubation, cells were washed again with PBS and DMEM using the plate washer (in the way mentioned above), and transporter 28 , 31 or 32 from the V-bottom plate was added (15 μL/well) to the cells in a final volume of 150 μL/well. A final concentration of each transporter 28 , 31 and 32 was 5 μM, 10 μM and 0.5 μM, respectively, except for the control wells, where only PBS was added (15 μL/well). Cells treated with transporter 28 or 31 were incubated for 30 min, and cells treated with 32 were incubated for 2 h at 37 °C with 5% CO 2. After that, the cells were washed with PBS and DMEM using the plate washer, and the solution of Hoechst 33342 and PI from the V-bottom plate was added (15 μL/well) to the cells in a final volume of 150 μL/well. After 15 min of incubation at 37 °C with 5% CO 2, the cells were washed and kept in clean FluoroBrite
(§5) DMEM. For live cell imaging, samples were kept at 37 °C with 5% CO 2 during the microscope imaging. The distribution of fluorescence stained cells was analyzed without fixing using an […]

Data set [2] concerns HeLa Kyoto cells. In words: Relative viability (HOE/PI) in HCHT screening. As for the experimental part: One advantage of HCHT imaging of cellular uptake compared to flow cytometry[38],[42],[43] is that it simultaneously gives information on toxicity and intracellular localization. […] Information on the intracellular localization of reporters can be quantified through segmentation of cellular compartments stained with specific markers.[52]
as §1
Relative cell viability ( RV) for each condition in the presence of inhibitors was calculated […]
of the relative cell viability ( RVrel) to the concentration of inhibitors ( cinhibitor ) was plotted and fitted with Equation (S19) to retrieve the concentration causing 50% cell growth inhibition (RV50) value and the Hill coefficient ( n).

Data set [3] is described as follows: in vitro. To be noted: human.
For data set [4], the system named is HK cells, transporter 31. In words: HCHT imaging: inhibition of cytosolic delivery of ETP transporter 31. The data set is classed as cell-based, Human. To be noted: co-incubation (C), inhibitor 1 h. The procedure:
as §1, §2, §3, §4, §5

Where [5] appears, read: Homo sapiens, 1 h, read-out: IC50 (concentration needed to reach 50% inhibition), transporter 28 5 μM, co-incubation (C).
Where [6] appears, read: Homo sapiens, 1 h, co-incubation (C).
[7] abbreviates: transporter 28 5 μM, co-incubation (C).
Where [8] appears, read: with transporter 28, co-incubation (C).

Structures are written as SMILES. ≈ marks a conversion by molar mass, not a printed value. Where “and” joins values, the source holds several entries; their conditions need not be identical. Equal values may be shown once. Read-outs that look alike come from different tables or passages of the source.

What is called viability is a read-out of living cells in per cent, often relative to untreated cells. As to `CC(C)(C)[Si](C)(C)O[C@H]1CS(=O)(=O)SC[C@H]1OC(=O)NCCNC(=O)CC(O)(CC(=O)NCCNC(=O)O[C@H]1CSS(=O)(=O)C[C@H]1O[Si](C)(C)C(C)(C)C)C(=O)NCCNC(=O)O[C@@H]1CSS(=O)(=O)C[C@@H]1O[Si](C)(C)C(C)(C)C` (stereo partly drawn) [Compound 42], the IC15 in data set [1] (Homo sapiens, 1 h, pre-incubation (P)) is 1.8 µM. Besides, the IC50 turned out to be 5.1 ± 0.4 µM in data set [1] (Homo sapiens, read-out: IC50 (concentration needed to reach 50% inhibition), transporter 28 5 μM, pre-incubation (P)) and 5 µM in data set [1] (read-out: IC50 (concentration needed to reach 50% inhibition), transporter 28 5 μM, pre-incubation (P)). Further, the “MIC (concentration needed to reach 15% inhibition)” value in data set [1] (transporter 28 5 μM, pre-incubation (P)) is 2 µM (≈ 2.58 µg/mL). In data set [2] (with transporter 28, pre-incubation (P)), the “RV50 (concentration needed to lower relative viability by 50%)” value was 22 ± 3 µM and 22 µM. Moreover, the viability at 7 h, 10 µM in data set [3] amounted to 107%.
Regarding `CC(=O)O[C@H]1CSS(=O)(=O)C[C@H]1O` [Compound 36], in data set [4] (Homo sapiens, 1 h, read-out: IC50 (concentration needed to reach 50% inhibition), transporter 31 10 μM), the IC50 was found to be 27 µM. Moreover, the IC15 in data set [4] (Homo sapiens, 1 h, read-out: MIC (concentration needed to reach 15% inhibition), transporter 31 10 μM) was 2.1 µM. Further, the “MIC (concentration needed to reach 15% inhibition)” value in data set [4] (transporter 31 10 μM) was found to be 2 µM. Besides, the “RV50 (concentration needed to lower relative viability by 50%)” value in data set [2] (with transporter 31, co-incubation (C)) is above 50 µM. Further, in data set [3], the viability at 7 h, 50 µM came to 97%.
Consider `O=C(NCCCCCCNC(=O)O[C@H]1CSS(=O)(=O)C[C@H]1O)O[C@H]1CSS(=O)(=O)C[C@H]1O` [Compound 41], for which the IC50 in data set [1] (setting [5]) is 8 µM. For the same molecule, the IC15 in data set [1] (setting [6]) worked out at 1 µM. Besides, the “MIC (concentration needed to reach 15% inhibition)” value in data set [1] (setting [7]) stood at 1 µM. In addition, in data set [2] (setting [8]), the “RV50 (concentration needed to lower relative viability by 50%)” value is above 50 µM. Also, the viability at 7 h, 5 µM in data set [3] amounted to 100%.
As to `O=C(NCCCCCCNC(=O)O[C@H]1CSS(=O)(=O)C[C@H]1OCc1ccccc1)O[C@H]1CSS(=O)(=O)C[C@H]1OCc1ccccc1` [Compound 33], in data set [1] (setting [5]), the IC50 is above 5 µM. Moreover, the IC15 in data set [1] (setting [6]) turned out to be 1.3 µM. For the same molecule, the “MIC (concentration needed to reach 15% inhibition)” value in data set [1] (setting [7]) came to 1 µM. The “RV50 (concentration needed to lower relative viability by 50%)” value in data set [2] (setting [8]) is above 5 µM. In addition, in data set [3], the viability at 7 h, 10 µM came to 107%.

Values taken from article PMC9088311, “Cyclic Thiosulfonates for Thiol-Mediated Uptake: Cascade Exchangers, Transporters, Inhibitors” (JACS Au, 2022).
